In PubChem BioAssay AID1996:
Values after ≈ are worked out from the molar mass of the structure shown.

Settings: buffer; pH 7.4; 200.0 µM

SMILES	solubility kinetic [µg/mL]
COc1ccc(-c2ocnc2C(=O)Nc2ccc3c(c2)CCC3)cc1	1.7 (≈ 5.08 µM)
Cc1ccc(C(=O)OC(C)C(=O)Nc2ccc3c(c2)OCO3)c(O)c1 (stereo not given)	9.5 (≈ 27.7 µM)
CCC(=O)Nc1ccc(S(=O)(=O)N2CCc3ccccc32)cc1	41.2 (≈ 125 µM)
O/N=C\c1cnc(N2CCN(c3ccccc3)CC2)s1	2.9 (≈ 10.1 µM)
N/C(COc1cc(Cl)cc(Cl)c1)=N\O	34.3 (≈ 146 µM)
COc1ccc(NC(=O)c2ccc(NC(=O)COC(=O)c3cnc(C)cn3)cc2)cc1	9.1 (≈ 21.6 µM)
CCNc1nc(NCC)nc(OCC(=O)O)n1	> 36.2
CS(=O)(=O)c1ccccc1C(=O)Nc1ccc(S(=O)(=O)N2CCCC2)cc1	> 61.3
FC(F)(F)c1ccc(-n2cn[nH]c2=S)cc1	> 36.8
COc1cc(NC(=S)N2CCN(CCO)CC2)cc(OC)c1	> 48.8
O=C(OCC(=O)N1CCc2ccccc21)c1ccc([N+](=O)[O-])o1	8.2 (≈ 25.9 µM)
CCOc1ccccc1NC(=O)NCc1ccco1	9.8 (≈ 37.6 µM)
NC(=O)CSc1nc2cc(S(=O)(=O)N3CCOCC3)ccc2o1	> 53.6
CSc1ncc(C(=O)Nc2ccccc2Cl)c(C)n1	39.6 (≈ 135 µM)
CC(=O)NC1C(O)OC(CO)C(O)C1O (stereo not given)	> 33.2
CCc1ccc(N2CN(Cc3cccnc3)CNC2=S)cc1	> 46.9
Cc1cc(C)c(-c2c(O)c3ccccc3n(C)c2=O)c(C)c1	> 44
CN(CC(=O)Nc1ccc(F)cc1)C(=O)CSc1nnc(Cc2ccccc2)o1	> 62.2
O=C(/C=C/c1ccccc1)NCCCNC(=O)/C=C/c1ccccc1	5 (≈ 15 µM)
S=C(NC1CCCCC1)N1CCOCC1	33.8 (≈ 148 µM)
O=C(O)CC(Sc1n[nH]c(=S)s1)C(=O)O (stereo not given)	> 39.9
COc1ccc(-c2nnc(SCC(=O)N(C)C3CCS(=O)(=O)C3)n2C(C)C)cc1 (stereo not given)	> 65.8
S=C(Nc1ccc(Br)cc1)N1CCN(c2ccccn2)CC1	2.1 (≈ 5.57 µM)
CCCN(CCC)C(=O)Nc1cc(Cl)ccc1OC	31.9 (≈ 112 µM)

SMILES	solubility kinetic [µg/mL]
COc1ccc(NC(=O)NCc2ccccc2F)cc1OC	10.9 (≈ 35.8 µM)
Nc1nonc1C(=O)NCCNc1ccc([N+](=O)[O-])cc1	3.8 (≈ 13 µM)
CCOc1ccccc1NC(=O)CCNC(=O)c1ccco1	42.6 (≈ 141 µM)
CC1=CC(C)(C)NC(=S)N1c1ccc(C)cc1C	2.1 (≈ 8.06 µM)
O=C(Nc1ccc(Br)cn1)c1cccc(S(=O)(=O)N2CCCC2)c1	5.7 (≈ 13.9 µM)
CCOc1ccc(CN(C)C(=O)c2ccc(=O)[nH]c2)cc1	29.3 (≈ 102 µM)
O=C(CSc1ncnc2sccc12)NC1CCS(=O)(=O)C1 (stereo not given)	> 51.5
O=S(=O)(NC(=S)NC1CCCCC1)c1ccc(Cl)cc1	> 49.9
COC(=O)c1ccccc1NC(=S)N(C)C	34.2 (≈ 144 µM)
O=C(N/C(=C/c1cccc([N+](=O)[O-])c1)C(=O)N1CCCC1)c1ccccc1	51.9 (≈ 142 µM)
Cc1ccc(C(=O)Nc2sc3c(c2C(=O)O)CCCC3)o1	> 45.8
O=c1cc(CO)oc(C(Nc2ccccn2)c2ccccc2Cl)c1O (stereo not given)	> 53.8
Cc1cccc(NC(=O)CCN2CCC(C)CC2)c1	> 39.1
Cc1cc(C)c(C(=O)COC(=O)CN2C(=O)NC3(CCCC3)C2=O)cc1C	> 55.9
Cc1ccc(O)c(NC(=O)c2cc(-c3ccco3)on2)c1	1.2 (≈ 4.22 µM)
CC(=O)Nc1ccc(NC(=S)NC(=O)c2ccc(-c3ccccc3)cc2)cc1	0.9 (≈ 2.31 µM)
O=C(NC1(Cc2ccc(O)cc2)CCCCC1)c1ccccc1	44.9 (≈ 145 µM)
O=S(=O)(Nc1ccc(F)cc1)c1cccc2nsnc12	> 46.4
COc1ccc2oc(C(=O)N3CCN(S(=O)(=O)c4ccc(F)cc4)CC3)c(C)c2c1	7.5 (≈ 17.3 µM)
O=C(O)C1CCN(C(=O)COc2ccc(Br)cc2)CC1	> 51.3
Cc1cccc(N2CCN(C(=O)c3oc4ccc(Br)cc4c3C)CC2)c1C	4.3 (≈ 10.1 µM)
COc1ccc(-c2cc(C(=O)N(C)Cc3nc4ccccc4c(=O)[nH]3)c3ccccc3n2)cc1OC	13.2 (≈ 27.5 µM)
CCOn1c(=O)c(-c2ccccc2)[n+]([O-])c2ccccc21	> 42.3
CCOc1ccc(NC(=O)NC2CCS(=O)(=O)C2)cc1 (stereo not given)	> 44.8

SMILES	solubility kinetic [µg/mL]
CCOC(=O)c1c(Cc2ccccc2)c[nH]c1C	30.9 (≈ 127 µM)
CCCN(CCC)C(=O)c1cc2c(=O)n3cccc(C)c3nc2s1	34.7 (≈ 101 µM)
CN1CC(C(=O)c2cccs2)C(c2ccc(Cl)cc2)C1 (stereo not given)	> 45.9
CC(NC(=S)Nc1ccc(F)cc1)c1ccccc1 (stereo not given)	27.7 (≈ 101 µM)
FC(F)Oc1ccc(NC(=S)NCc2nc3ccccc3[nH]2)cc1	> 52.3
Cc1ccc2c(C)c(C(=O)NCCc3ccco3)oc2c1C	2.8 (≈ 9.42 µM)
Cc1cc(C)c2c(CC(=O)NC(C)C)coc2c1	9.5 (≈ 38.7 µM)
CC(C)(C)NC(=O)CN1C(=O)/C(=C/c2ccccc2)SC1=S	1.1 (≈ 3.29 µM)
CSc1cc(-c2ccncc2)nc(-c2ccc(Cl)cc2)c1	< 0.3
Cc1cccc(C(=O)NCC(=O)N2CCCCCCC2)c1	> 43.3
CC1(C)Cc2cccc(C(=O)Nc3ccncc3)c2O1	34.8 (≈ 130 µM)
Cc1ccccc1Nc1c([N+](=O)[O-])cncc1[N+](=O)[O-]	37.1 (≈ 135 µM)
COC(=O)c1ccc(CNC(=O)[C@@H]2CCCN2S(=O)(=O)c2ccccc2F)cc1	60.7 (≈ 144 µM)
CC(C)(C)NC(=O)C(OC(=O)c1ccco1)c1ccccc1F (stereo not given)	> 47.9
CC(=O)Nc1ccc(/C=C(\C#N)S(=O)(=O)c2ccc(C)cc2)cc1	5.2 (≈ 15.3 µM)
O=c1[nH]c(=S)n(-c2ccccc2)c(O)c1C=NCc1ccccn1	> 50.8
Cc1ccc(C)c(CNC(=O)Nc2ccccc2)c1	0.8 (≈ 3.15 µM)
O=C1CCCc2nc3c(cc21)C(O)Oc1ccccc1-3 (stereo not given)	19.4 (≈ 72.6 µM)
CCCNc1nc(OC)nc(N2CC3CC(C2)c2cccc(=O)n2C3)n1 (stereo not given)	50.6 (≈ 142 µM)
CSc1nc(N)cc(=O)[nH]1	> 23.6
CSc1ccc(CN(C)C(C)C(=O)NCC2CCCCC2)cc1 (stereo not given)	28.3 (≈ 84.6 µM)
CCOc1ccc(CC(=O)N/N=C/c2cccnc2)cc1	> 42.5
CN1C(=O)C2C3c4ccccc4C(c4ccccc43)[C@@H]2C1=O (stereo not given in full)	2 (≈ 6.91 µM)
COc1ccccc1NC(=O)/C(C#N)=C/c1cccn1C	0.6 (≈ 2.13 µM)

SMILES	solubility kinetic [µg/mL]
C[C@H](NC(=O)c1ccc(C(C)(C)C)cc1)C(=O)N1CCN(C/C=C/c2ccccc2)CC1	21.6 (≈ 49.8 µM)
O=Cc1ccc(C(=O)OCC(=O)NCc2ccco2)cc1	> 43.1
O=C(Nc1ccc(Cl)cc1Cl)c1cc2ccccc2o1	< 0.7
Nc1nc2ccccc2[nH]1	> 20
Cc1cc(C)c(S(=O)(=O)NCc2csc(C)n2)c(C)c1	> 46.6
O=C(NCc1ccco1)c1ccc(-c2cccc(Cl)c2)o1	1.3 (≈ 4.31 µM)
Cn1c(N)c(C(=O)COC(=O)/C=C/c2ccc(Cl)c(Cl)c2)c(=O)n(C)c1=O	2.9 (≈ 7.03 µM)
COCCSc1ccccc1C(=O)NCCc1ccccc1	> 47.3
CC(C)c1ccccc1NC(=S)NCc1nc2ccccc2[nH]1	> 48.7
O=C(Nc1cccc([N+](=O)[O-])c1)Nc1cccs1	32.3 (≈ 123 µM)
O=C(Nc1sc2c(c1C(=O)O)CCC2)c1cccc(Cl)c1	> 48.3
CC(Sc1nncs1)C(=O)NC1CCCCC1C (stereo not given)	> 42.8
O=[N+]([O-])c1ccc(P(=O)(Cc2ccccc2)c2ccccc2O)cc1 (stereo not given)	17 (≈ 48.1 µM)
N/C(=N\OC(=O)/C=C/c1ccccc1)c1ccc(Cl)cc1	1.3 (≈ 4.32 µM)
O=C1CCCN1CN(C(=O)c1ccccc1)c1ccccc1	> 44.2
CCNc1nc(NC(C)C)nc(N(C#N)CC(=O)OC)n1	> 44
COc1cccc(CNC(=O)COC(=O)c2nn(C)c(=O)c3ccccc23)c1	> 57.2
Cc1cccc(-c2noc(CNC(=O)c3ccco3)n2)c1	42.5 (≈ 150 µM)
O=C(Nc1ccc(F)cc1)c1ccc(S(=O)(=O)N2CCOCC2)o1	> 53.2
COc1ccccc1CNc1nc(C)c(C(=O)N(C)C)s1	> 45.8
O=S(=O)(NC1CC1)c1ccc(F)c(F)c1	> 35
Cc1ccc(C(=O)OCN2C(=O)c3ccccc3C2=O)c(O)c1	< 0.7
CCOc1ccccc1NC(=S)NC1CC2CCC1C2 (stereo not given)	5 (≈ 17.2 µM)
CC(=O)c1ccccc1NCC(=O)Nc1ccc(C)cc1	11.2 (≈ 39.7 µM)

SMILES	solubility kinetic [µg/mL]
Cc1ccc(C2(c3ccc(C)cc3)CC2C(=O)NC(C)C)cc1 (stereo not given)	1 (≈ 3.25 µM)
O=[N+]([O-])c1ccc(Cc2ccccn2)cc1	> 32.1
O=C(CCn1ccnc1)Nc1nc2ccccc2[nH]1	> 38.3
Cc1ccc(C)c(NC(=S)N2CCC(NC(=O)c3ccco3)CC2)c1	45.4 (≈ 127 µM)
COc1ccc(CCNC(=O)C2Cc3ccccc3C(=O)O2)cc1 (stereo not given)	> 48.8
C/C(=N\O)C(=O)C(CN1CCCCC1)CN1CCCCC1	30.2 (≈ 102 µM)
O=C(CN1CCN(C(=O)c2ccco2)CC1)Nc1ccccc1	> 47
CC(=O)c1nc(-c2ccccc2)sc1C	12.7 (≈ 58.4 µM)
CSc1ncccc1C(=O)OCC(=O)c1ccccc1	1 (≈ 3.48 µM)
Cc1ccc2c(c1)oc(=O)n2CC(=O)c1ccccc1	6.5 (≈ 24.3 µM)
COC(=O)c1ccn(CC(=O)NC2CCCCC2)n1	> 39.8
CN1CCCN(C(=O)c2c(F)cccc2Cl)CC1	> 40.6
O=C(CCc1ccccc1O)NC1CCCc2ccccc21 (stereo not given)	> 44.3
Cc1oc(C)c(S(=O)(=O)NCc2cccs2)c1C(=O)O	> 47.3
CC1CN(S(=O)(=O)c2cccc(C(=O)OCC(=O)N3CCCCCC3)c2)CC(C)O1 (stereo not given)	12.9 (≈ 29.4 µM)
CCCCOC(=O)CSc1nc2ccccc2o1	5.4 (≈ 20.4 µM)
Br.CC(C)CC(N)C(=O)OCc1ccc([N+](=O)[O-])cc1 (stereo not given)	> 52.1
O=C(NCc1ccccn1)C(=O)Nc1cccc2ccccc12	35.4 (≈ 116 µM)
COc1ccc(CCC(=O)NCCOc2ccc(C)cc2)cc1	24 (≈ 76.6 µM)
Cc1cc(=O)n(Cc2ccccc2)c2ccccc12	> 37.4
O=C1NC(=O)/C(=C\c2ccc(OCc3ccccc3)cc2)S1	< 0.7
Cc1cc(C(=O)OC(C)C(=O)NC2CCCCC2C)c(C)o1 (stereo not given)	5.5 (≈ 17.9 µM)
Fc1ccccc1COc1ccc(C(=S)N2CCCC2)cc1	3.5 (≈ 11.1 µM)
O=C(NCc1ccco1)c1ccc(-c2ccc(Cl)cc2)o1	1.2 (≈ 3.98 µM)
